Values of other authors, collected in US20080262086A1, “SUBSTITUTED ANTHRANILIC ACIDS” (AUSPEX PHARMACEUTICALS, INC., priority 2007, published 2008).

Columns and labels:
[1] = short half-life of bumetanide, background
[2] = test system: reabsorption of sodium, potassium, and chloride; settings: times more potent than furosemide

In the case of `CCCCNc1cc(C(=O)O)cc(S(N)(=O)=O)c1Oc1ccccc1` [Bumetanide, 3-Butylamino-4-phenoxy-5-sulfamoyl-benzoic acid], the half-life [1] is listed as 1 to 1.5 h and the “potency relative to furosemide” value [2] is listed as “approximately 40 times”.
